{"source": "the NIST ThermoML archive (doi:10.1021/je200637v)", "assay": "activity coefficient (dimensionless); of the first substance listed, at infinite dilution; xn = mol fraction of the nth substance listed", "settings": "Liquid, Chromatography, x1 = 0", "note": "Numbers after ± are expanded uncertainties."}
{"smiles": "C=O", "note": "[methanal] + CCCCCCCCCC[N+](C)(C)C.O=S(=O)([N-]S(=O)(=O)C(F)(F)F)C(F)(F)F", "values": [{"measurement": "activity coefficient", "setting": "322.85 K", "result": "0.09 ± 0.04"}, {"measurement": "activity coefficient", "setting": "332.65 K", "result": "0.1 ± 0.04"}, {"measurement": "activity coefficient", "setting": "343.15 K", "result": "0.11 ± 0.04"}]}
{"smiles": "C=O", "note": "[methanal] + CCCCCCCC[N+](C)(C)C.O=S(=O)([N-]S(=O)(=O)C(F)(F)F)C(F)(F)F", "values": [{"measurement": "activity coefficient", "setting": "322.85 K", "result": "0.1 ± 0.04"}, {"measurement": "activity coefficient", "setting": "332.65 K", "result": "0.11 ± 0.04"}, {"measurement": "activity coefficient", "setting": "343.15 K", "result": "0.12 ± 0.04"}]}
{"smiles": "C=O", "note": "[methanal] + CCCCCCCC[N+](CCCCCCCC)(CCCCCCCC)CCCCCCCC.O=S(=O)([N-]S(=O)(=O)C(F)(F)F)C(F)(F)F", "values": [{"measurement": "activity coefficient", "setting": "322.85 K", "result": 0.07}, {"measurement": "activity coefficient", "setting": "332.65 K", "result": 0.08}, {"measurement": "activity coefficient", "setting": "343.15 K", "result": "0.09 ± 0.04"}]}
{"smiles": "C=O", "note": "[methanal] + CCCC[N+](C)(CCCC)CCCC.O=S(=O)([N-]S(=O)(=O)C(F)(F)F)C(F)(F)F", "values": [{"measurement": "activity coefficient", "setting": "322.85 K", "result": "0.11 ± 0.04"}, {"measurement": "activity coefficient", "setting": "332.65 K", "result": "0.12 ± 0.04"}, {"measurement": "activity coefficient", "setting": "343.15 K", "result": "0.13 ± 0.04"}]}
{"smiles": "CO", "note": "[methanol] + CCCCCCCCCC[N+](C)(C)C.O=S(=O)([N-]S(=O)(=O)C(F)(F)F)C(F)(F)F", "values": [{"measurement": "activity coefficient", "setting": "322.85 K", "result": "0.79 ± 0.03"}, {"measurement": "activity coefficient", "setting": "332.65 K", "result": "0.91 ± 0.03"}, {"measurement": "activity coefficient", "setting": "343.15 K", "result": "0.66 ± 0.03"}]}
{"smiles": "CO", "note": "[methanol] + CCCCCCCC[N+](C)(C)C.O=S(=O)([N-]S(=O)(=O)C(F)(F)F)C(F)(F)F", "values": [{"measurement": "activity coefficient", "setting": "322.85 K", "result": "0.92 ± 0.03"}, {"measurement": "activity coefficient", "setting": "332.65 K", "result": "0.78 ± 0.03"}, {"measurement": "activity coefficient", "setting": "343.15 K", "result": "0.81 ± 0.03"}]}
{"smiles": "CO", "note": "[methanol] + CCCCCCCC[N+](CCCCCCCC)(CCCCCCCC)CCCCCCCC.O=S(=O)([N-]S(=O)(=O)C(F)(F)F)C(F)(F)F", "values": [{"measurement": "activity coefficient", "setting": "322.85 K", "result": "0.65 ± 0.03"}, {"measurement": "activity coefficient", "setting": "332.65 K", "result": "0.76 ± 0.03"}, {"measurement": "activity coefficient", "setting": "343.15 K", "result": "0.82 ± 0.03"}]}
{"smiles": "CO", "note": "[methanol] + CCCC[N+](C)(CCCC)CCCC.O=S(=O)([N-]S(=O)(=O)C(F)(F)F)C(F)(F)F", "values": [{"measurement": "activity coefficient", "setting": "322.85 K", "result": "0.96 ± 0.03"}, {"measurement": "activity coefficient", "setting": "332.65 K", "result": "0.75 ± 0.03"}, {"measurement": "activity coefficient", "setting": "343.15 K", "result": "0.88 ± 0.03"}]}
{"smiles": "CC1CCCCC1", "note": "[methylcyclohexane] + CCCCCCCCCC[N+](C)(C)C.O=S(=O)([N-]S(=O)(=O)C(F)(F)F)C(F)(F)F", "values": [{"measurement": "activity coefficient", "setting": "322.85 K", "result": "3.57 ± 0.16"}, {"measurement": "activity coefficient", "setting": "332.65 K", "result": "3.57 ± 0.16"}, {"measurement": "activity coefficient", "setting": "343.15 K", "result": "3.39 ± 0.15"}]}
{"smiles": "CC1CCCCC1", "note": "[methylcyclohexane] + CCCCCCCC[N+](C)(C)C.O=S(=O)([N-]S(=O)(=O)C(F)(F)F)C(F)(F)F", "values": [{"measurement": "activity coefficient", "setting": "322.85 K", "result": "5.23 ± 0.24"}, {"measurement": "activity coefficient", "setting": "332.65 K", "result": "4.93 ± 0.23"}, {"measurement": "activity coefficient", "setting": "343.15 K", "result": "4.6 ± 0.21"}]}
{"smiles": "CC1CCCCC1", "note": "[methylcyclohexane] + CCCCCCCC[N+](CCCCCCCC)(CCCCCCCC)CCCCCCCC.O=S(=O)([N-]S(=O)(=O)C(F)(F)F)C(F)(F)F", "values": [{"measurement": "activity coefficient", "setting": "322.85 K", "result": "1.07 ± 0.03"}, {"measurement": "activity coefficient", "setting": "332.65 K", "result": "1.06 ± 0.03"}, {"measurement": "activity coefficient", "setting": "343.15 K", "result": "1.05 ± 0.03"}]}
{"smiles": "CC1CCCCC1", "note": "[methylcyclohexane] + CCCC[N+](C)(CCCC)CCCC.O=S(=O)([N-]S(=O)(=O)C(F)(F)F)C(F)(F)F", "values": [{"measurement": "activity coefficient", "setting": "322.85 K", "result": "5.92 ± 0.27"}, {"measurement": "activity coefficient", "setting": "332.65 K", "result": "5.91 ± 0.27"}, {"measurement": "activity coefficient", "setting": "343.15 K", "result": "5.58 ± 0.26"}]}
{"smiles": "CC1CCCC1", "note": "[methylcyclopentane] + CCCCCCCCCC[N+](C)(C)C.O=S(=O)([N-]S(=O)(=O)C(F)(F)F)C(F)(F)F", "values": [{"measurement": "activity coefficient", "setting": "322.85 K", "result": "2.99 ± 0.14"}, {"measurement": "activity coefficient", "setting": "332.65 K", "result": "2.99 ± 0.14"}, {"measurement": "activity coefficient", "setting": "343.15 K", "result": "2.83 ± 0.13"}]}
{"smiles": "CC1CCCC1", "note": "[methylcyclopentane] + CCCCCCCC[N+](C)(C)C.O=S(=O)([N-]S(=O)(=O)C(F)(F)F)C(F)(F)F", "values": [{"measurement": "activity coefficient", "setting": "322.85 K", "result": "4.18 ± 0.19"}, {"measurement": "activity coefficient", "setting": "332.65 K", "result": "3.95 ± 0.18"}, {"measurement": "activity coefficient", "setting": "343.15 K", "result": "3.67 ± 0.17"}]}
{"smiles": "CC1CCCC1", "note": "[methylcyclopentane] + CCCCCCCC[N+](CCCCCCCC)(CCCCCCCC)CCCCCCCC.O=S(=O)([N-]S(=O)(=O)C(F)(F)F)C(F)(F)F", "values": [{"measurement": "activity coefficient", "setting": "322.85 K", "result": "0.98 ± 0.03"}, {"measurement": "activity coefficient", "setting": "332.65 K", "result": "0.97 ± 0.03"}, {"measurement": "activity coefficient", "setting": "343.15 K", "result": "0.97 ± 0.03"}]}
{"smiles": "CC1CCCC1", "note": "[methylcyclopentane] + CCCC[N+](C)(CCCC)CCCC.O=S(=O)([N-]S(=O)(=O)C(F)(F)F)C(F)(F)F", "values": [{"measurement": "activity coefficient", "setting": "322.85 K", "result": "4.75 ± 0.22"}, {"measurement": "activity coefficient", "setting": "332.65 K", "result": "4.74 ± 0.22"}, {"measurement": "activity coefficient", "setting": "343.15 K", "result": "4.5 ± 0.21"}]}
{"smiles": "C[N+](=O)[O-]", "note": "[nitromethane] + CCCCCCCCCC[N+](C)(C)C.O=S(=O)([N-]S(=O)(=O)C(F)(F)F)C(F)(F)F", "values": [{"measurement": "activity coefficient", "setting": "322.85 K", "result": "0.56 ± 0.03"}, {"measurement": "activity coefficient", "setting": "332.65 K", "result": "0.58 ± 0.03"}, {"measurement": "activity coefficient", "setting": "343.15 K", "result": "0.55 ± 0.03"}]}
{"smiles": "C[N+](=O)[O-]", "note": "[nitromethane] + CCCCCCCC[N+](C)(C)C.O=S(=O)([N-]S(=O)(=O)C(F)(F)F)C(F)(F)F", "values": [{"measurement": "activity coefficient", "setting": "322.85 K", "result": "0.6 ± 0.03"}, {"measurement": "activity coefficient", "setting": "332.65 K", "result": "0.58 ± 0.03"}, {"measurement": "activity coefficient", "setting": "343.15 K", "result": "0.55 ± 0.03"}]}
{"smiles": "C[N+](=O)[O-]", "note": "[nitromethane] + CCCCCCCC[N+](CCCCCCCC)(CCCCCCCC)CCCCCCCC.O=S(=O)([N-]S(=O)(=O)C(F)(F)F)C(F)(F)F", "values": [{"measurement": "activity coefficient", "setting": "322.85 K", "result": "0.63 ± 0.03"}, {"measurement": "activity coefficient", "setting": "332.65 K", "result": "0.61 ± 0.03"}, {"measurement": "activity coefficient", "setting": "343.15 K", "result": "0.59 ± 0.03"}]}
{"smiles": "C[N+](=O)[O-]", "note": "[nitromethane] + CCCC[N+](C)(CCCC)CCCC.O=S(=O)([N-]S(=O)(=O)C(F)(F)F)C(F)(F)F", "values": [{"measurement": "activity coefficient", "setting": "322.85 K", "result": "0.65 ± 0.03"}, {"measurement": "activity coefficient", "setting": "332.65 K", "result": "0.65 ± 0.03"}, {"measurement": "activity coefficient", "setting": "343.15 K", "result": "0.62 ± 0.03"}]}
{"smiles": "CCCCCCCCC", "note": "[nonane] + CCCCCCCCCC[N+](C)(C)C.O=S(=O)([N-]S(=O)(=O)C(F)(F)F)C(F)(F)F", "values": [{"measurement": "activity coefficient", "setting": "322.85 K", "result": "8.87 ± 0.41"}, {"measurement": "activity coefficient", "setting": "332.65 K", "result": "8.63 ± 0.4"}, {"measurement": "activity coefficient", "setting": "343.15 K", "result": "7.61 ± 0.35"}]}
{"smiles": "CCCCCCCCC", "note": "[nonane] + CCCCCCCC[N+](C)(C)C.O=S(=O)([N-]S(=O)(=O)C(F)(F)F)C(F)(F)F", "values": [{"measurement": "activity coefficient", "setting": "322.85 K", "result": "15.9 ± 0.74"}, {"measurement": "activity coefficient", "setting": "332.65 K", "result": "14.8 ± 0.68"}, {"measurement": "activity coefficient", "setting": "343.15 K", "result": "13.4 ± 0.62"}]}
